Assay results published in ChEMBL document CHEMBL5380831, “Azolylpyrimidinediols as Novel Structural Scaffolds of DNA-Groove Binders against Intractable Acinetobacter baumannii” (J Med Chem, 2023).
In brackets after ≈: the same amount, converted by molar mass.

Tests used:
Type in all cases: functional
[1] = test system: Staphylococcus aureus; assay: Antibacterial activity against Staphylococcus aureus ATCC 29213 assessed as bacterial growth inhibition incubated for 24 hrs by broth microdilution method
[2] = test system: Enterococcus faecalis; assay: Antibacterial activity against Enterococcus faecalis assessed as bacterial growth inhibition incubated for 24 hrs by broth microdilution method
[3] = test system: Escherichia coli; assay: Antibacterial activity against Escherichia coli ATCC 25922 assessed as bacterial growth inhibition incubated for 24 hrs by broth microdilution method
[4] = test system: Staphylococcus aureus; assay: Antibacterial activity against Staphylococcus aureus assessed as bacterial growth inhibition incubated for 24 hrs by broth microdilution method
[5] = test system: Klebsiella pneumoniae; assay: Antibacterial activity against Klebsiella pneumoniae assessed as bacterial growth inhibition incubated for 24 hrs by broth microdilution method
[6] = test system: Pseudomonas aeruginosa; assay: Antibacterial activity against Pseudomonas aeruginosa assessed as bacterial growth inhibition incubated for 24 hrs by broth microdilution method
[7] = test system: Staphylococcus aureus; assay: Antibacterial activity against Staphylococcus aureus ATCC 25923 assessed as bacterial growth inhibition incubated for 24 hrs by broth microdilution method
[8] = test system: Escherichia coli; assay: Antibacterial activity against Escherichia coli assessed as bacterial growth inhibition incubated for 24 hrs by broth microdilution method
[9] = test system: Acinetobacter baumannii; assay: Antibacterial activity against Acinetobacter baumannii assessed as bacterial growth inhibition incubated for 24 hrs by broth microdilution method
[10] = test system: Pseudomonas aeruginosa; assay: Antibacterial activity against Pseudomonas aeruginosa ATCC 27853 assessed as bacterial growth inhibition incubated for 24 hrs by broth microdilution method
[11] = test system: Staphylococcus aureus; assay: Antibacterial activity against methicillin-resistant Staphylococcus aureus assessed as bacterial growth inhibition incubated for 24 hrs by broth microdilution method

Row | SMILES | MIC [1] | MIC [2] | MIC [3] | MIC [4] | MIC [5] | MIC [6] | MIC [7] | MIC [8] | MIC [9] | MIC [10] | MIC [11]
1 | Cc1cn(-c2nccc(N(CCO)CCO)n2)cn1 | 973 µM (≈ 256 µg/mL) | 1950 µM (≈ 512 µg/mL) | 1950 µM (≈ 512 µg/mL) | 973 µM (≈ 256 µg/mL) | 973 µM (≈ 256 µg/mL) | 973 µM (≈ 256 µg/mL) | 1950 µM (≈ 512 µg/mL) | 973 µM (≈ 256 µg/mL) | 486 µM (≈ 128 µg/mL) | 973 µM (≈ 256 µg/mL) | 973 µM (≈ 256 µg/mL)
2 | Cc1ncc([N+](=O)[O-])n1-c1ccnc(N(CCO)CCO)n1 |  | 406 µM (≈ 125 µg/mL) | 831 µM (≈ 256 µg/mL) | 415 µM (≈ 128 µg/mL) | 415 µM (≈ 128 µg/mL) | 415 µM (≈ 128 µg/mL) | 831 µM (≈ 256 µg/mL) | 415 µM (≈ 128 µg/mL) | 415 µM (≈ 128 µg/mL) | 1660 µM (≈ 512 µg/mL) | 831 µM (≈ 256 µg/mL)
3 | CCN(CC)c1nccc(-n2cncn2)n1 | 587 µM (≈ 128 µg/mL) | 587 µM (≈ 128 µg/mL) | 587 µM (≈ 128 µg/mL) | 1170 µM (≈ 256 µg/mL) | 1170 µM (≈ 256 µg/mL) | 1170 µM (≈ 256 µg/mL) | 587 µM (≈ 128 µg/mL) | 587 µM (≈ 128 µg/mL) | 1170 µM (≈ 256 µg/mL) | 587 µM (≈ 128 µg/mL) | 1170 µM (≈ 256 µg/mL)
4 | CC(=O)Nc1ccc(S(=O)(=O)N2CCN(c3nccc(-n4cncn4)n3)CC2)cc1 | 598 µM (≈ 256 µg/mL) | 598 µM (≈ 256 µg/mL) | 598 µM (≈ 256 µg/mL) | 299 µM (≈ 128 µg/mL) | 598 µM (≈ 256 µg/mL) | 598 µM (≈ 256 µg/mL) | 299 µM (≈ 128 µg/mL) | 598 µM (≈ 256 µg/mL) | 598 µM (≈ 256 µg/mL) | 598 µM (≈ 256 µg/mL) | 598 µM (≈ 256 µg/mL)
5 | Cc1ncc([N+](=O)[O-])n1-c1nccc(N(CCO)CCO)n1 | 831 µM (≈ 256 µg/mL) | 831 µM (≈ 256 µg/mL) | 1660 µM (≈ 512 µg/mL) | 831 µM (≈ 256 µg/mL) | 415 µM (≈ 128 µg/mL) | 415 µM (≈ 128 µg/mL) | 831 µM (≈ 256 µg/mL) | 415 µM (≈ 128 µg/mL) | 415 µM (≈ 128 µg/mL) | 415 µM (≈ 128 µg/mL) | 831 µM (≈ 256 µg/mL)
6 | OCCN(CCO)c1ccnc(-n2ccnc2-c2ccccc2)n1 | 787 µM (≈ 256 µg/mL) | 787 µM (≈ 256 µg/mL) | 1580 µM (≈ 512 µg/mL) | 787 µM (≈ 256 µg/mL) | 787 µM (≈ 256 µg/mL) | 197 µM (≈ 64.1 µg/mL) | 394 µM (≈ 128 µg/mL) | 787 µM (≈ 256 µg/mL) | 394 µM (≈ 128 µg/mL) | 787 µM (≈ 256 µg/mL) | 1580 µM (≈ 512 µg/mL)
7 | OCCN(CCO)c1nccc(-n2ccnc2)n1 | 1030 µM (≈ 256 µg/mL) | 1030 µM (≈ 256 µg/mL) | 1030 µM (≈ 256 µg/mL) | 1030 µM (≈ 256 µg/mL) | 1030 µM (≈ 256 µg/mL) | 1030 µM (≈ 256 µg/mL) | 1030 µM (≈ 256 µg/mL) | 1030 µM (≈ 256 µg/mL) | 1030 µM (≈ 256 µg/mL) | 1030 µM (≈ 256 µg/mL) | 1030 µM (≈ 256 µg/mL)
8 | CCN(CCO)c1nccc(-n2cncn2)n1 | 1090 µM (≈ 256 µg/mL) | 1090 µM (≈ 256 µg/mL) | 547 µM (≈ 128 µg/mL) | 1090 µM (≈ 256 µg/mL) | 1090 µM (≈ 256 µg/mL) | 547 µM (≈ 128 µg/mL) | 1090 µM (≈ 256 µg/mL) | 1090 µM (≈ 256 µg/mL) | 1090 µM (≈ 256 µg/mL) | 1090 µM (≈ 256 µg/mL) | 1090 µM (≈ 256 µg/mL)
9 | O=C(c1ccccc1)N1CCN(c2nccc(-n3cncn3)n2)CC1 | 764 µM (≈ 256 µg/mL) | 764 µM (≈ 256 µg/mL) | 6 µM (≈ 2.01 µg/mL) | 764 µM (≈ 256 µg/mL) | 6 µM (≈ 2.01 µg/mL) | 382 µM (≈ 128 µg/mL) | 764 µM (≈ 256 µg/mL) | 764 µM (≈ 256 µg/mL) | 764 µM (≈ 256 µg/mL) | 764 µM (≈ 256 µg/mL) | 764 µM (≈ 256 µg/mL)
10 | O=S(=O)(c1ccc(F)cc1)N1CCN(c2nccc(-n3cncn3)n2)CC1 | 658 µM (≈ 256 µg/mL) | 658 µM (≈ 256 µg/mL) | 658 µM (≈ 256 µg/mL) | 658 µM (≈ 256 µg/mL) | 658 µM (≈ 256 µg/mL) | 329 µM (≈ 128 µg/mL) | 165 µM (≈ 64.3 µg/mL) | 658 µM (≈ 256 µg/mL) | 165 µM (≈ 64.3 µg/mL) | 658 µM (≈ 256 µg/mL) | 658 µM (≈ 256 µg/mL)
11 | O=C(C(Cl)Cl)N1CCN(c2nccc(-n3cncn3)n2)CC1 | 705 µM (≈ 241 µg/mL) | 705 µM (≈ 241 µg/mL) | 353 µM (≈ 121 µg/mL) | 705 µM (≈ 241 µg/mL) | 353 µM (≈ 121 µg/mL) | 88 µM (≈ 30.1 µg/mL) | 705 µM (≈ 241 µg/mL) | 705 µM (≈ 241 µg/mL) | 705 µM (≈ 241 µg/mL) | 705 µM (≈ 241 µg/mL) | 705 µM (≈ 241 µg/mL)
12 | O=c1ccc2c(CN3CCN(c4nccc(-n5cncn5)n4)CC3)cc(O)cc2o1 | 632 µM (≈ 256 µg/mL) | 316 µM (≈ 128 µg/mL) | 633 µM (≈ 257 µg/mL) | 316 µM (≈ 128 µg/mL) | 632 µM (≈ 256 µg/mL) | 316 µM (≈ 128 µg/mL) | 316 µM (≈ 128 µg/mL) | 632 µM (≈ 256 µg/mL) | 158 µM (≈ 64.1 µg/mL) | 632 µM (≈ 256 µg/mL) | 316 µM (≈ 128 µg/mL)
13 | Clc1ccc2c3ccccc3n(-c3nccc(-n4cncn4)n3)c2c1 | 740 µM (≈ 257 µg/mL) | 185 µM (≈ 64.2 µg/mL) | 740 µM (≈ 257 µg/mL) | 740 µM (≈ 257 µg/mL) | 740 µM (≈ 257 µg/mL) | 3 µM (≈ 1.04 µg/mL) | 740 µM (≈ 257 µg/mL) | 740 µM (≈ 257 µg/mL) | 740 µM (≈ 257 µg/mL) | 740 µM (≈ 257 µg/mL) | 740 µM (≈ 257 µg/mL)
14 | CC(C)N(c1nccc(-n2cncn2)n1)C(C)C | 1040 µM (≈ 256 µg/mL) | 1040 µM (≈ 256 µg/mL) | 1040 µM (≈ 256 µg/mL) | 1040 µM (≈ 256 µg/mL) | 1040 µM (≈ 256 µg/mL) | 520 µM (≈ 128 µg/mL) | 520 µM (≈ 128 µg/mL) | 1040 µM (≈ 256 µg/mL) | 1040 µM (≈ 256 µg/mL) | 520 µM (≈ 128 µg/mL) | 520 µM (≈ 128 µg/mL)
15 | CCCc1nccn1-c1nccc(N(CCO)CCO)n1 | 879 µM (≈ 256 µg/mL) | 879 µM (≈ 256 µg/mL) | 879 µM (≈ 256 µg/mL) | 879 µM (≈ 256 µg/mL) | 879 µM (≈ 256 µg/mL) | 879 µM (≈ 256 µg/mL) | 879 µM (≈ 256 µg/mL) | 879 µM (≈ 256 µg/mL) | 879 µM (≈ 256 µg/mL) | 879 µM (≈ 256 µg/mL) | 879 µM (≈ 256 µg/mL)
16 | O=[N+]([O-])c1cn(-c2ccnc(N(CCO)CCO)n2)cn1 | 870 µM (≈ 256 µg/mL) | 870 µM (≈ 256 µg/mL) | 870 µM (≈ 256 µg/mL) | 435 µM (≈ 128 µg/mL) | 870 µM (≈ 256 µg/mL) | 435 µM (≈ 128 µg/mL) | 435 µM (≈ 128 µg/mL) | 435 µM (≈ 128 µg/mL) |  | 435 µM (≈ 128 µg/mL) | 870 µM (≈ 256 µg/mL)
17 | CCCc1nccn1-c1ccnc(N(CCO)CCO)n1 | 879 µM (≈ 256 µg/mL) | 879 µM (≈ 256 µg/mL) | 879 µM (≈ 256 µg/mL) | 879 µM (≈ 256 µg/mL) | 379 µM (≈ 110 µg/mL) | 879 µM (≈ 256 µg/mL) | 879 µM (≈ 256 µg/mL) | 879 µM (≈ 256 µg/mL) | 879 µM (≈ 256 µg/mL) | 879 µM (≈ 256 µg/mL) | 879 µM (≈ 256 µg/mL)
18 | Cc1cn(-c2ccnc(N(CCO)CCO)n2)c(C)n1 | 924 µM (≈ 256 µg/mL) | 924 µM (≈ 256 µg/mL) | 924 µM (≈ 256 µg/mL) | 924 µM (≈ 256 µg/mL) | 934 µM (≈ 259 µg/mL) | 924 µM (≈ 256 µg/mL) | 924 µM (≈ 256 µg/mL) | 924 µM (≈ 256 µg/mL) | 462 µM (≈ 128 µg/mL) | 924 µM (≈ 256 µg/mL) | 924 µM (≈ 256 µg/mL)
19 | Cc1cn(-c2ccnc(N(CCO)CCO)n2)cn1 | 973 µM (≈ 256 µg/mL) | 973 µM (≈ 256 µg/mL) | 1950 µM (≈ 512 µg/mL) | 973 µM (≈ 256 µg/mL) | 973 µM (≈ 256 µg/mL) | 973 µM (≈ 256 µg/mL) | 973 µM (≈ 256 µg/mL) | 973 µM (≈ 256 µg/mL) | 973 µM (≈ 256 µg/mL) | 973 µM (≈ 256 µg/mL) | 973 µM (≈ 256 µg/mL)
20 | OCCN(CCO)c1nccc(-n2cnnn2)n1 | 1020 µM (≈ 256 µg/mL) | 1020 µM (≈ 256 µg/mL) | 1020 µM (≈ 256 µg/mL) | 1020 µM (≈ 256 µg/mL) | 1020 µM (≈ 256 µg/mL) |  | 1020 µM (≈ 256 µg/mL) | 1020 µM (≈ 256 µg/mL) | 510 µM (≈ 128 µg/mL) | 1020 µM (≈ 256 µg/mL) | 2040 µM (≈ 512 µg/mL)
